According to patent US11198695B2, “Fused ring derivative having MGAT-2 inhibitory activity” (Shionogi & Co., Ltd., priority 2017, dated 2021):

Biological target: recombinant human MGAT2 (Homo sapiens (Human), UniProt Q3SYC2)
Assay: Measurement of human MGAT2 inhibitory activity
Format: biochemical
Details: read-out: IC50 (concentration exhibiting 50% enzyme inhibition), Table 53
How it was run: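 Membrane fraction of Sf9 cells expressing N-terminally Flag-tagged full-length human MGAT2, incubated 1 h at room temperature in 100 mmol/L phosphate pH 7.4 with 2 mmol/L DTT. The substrate solution held 30 μmol/L 2-oleoylglycerol and 10 μmol/L oleoyl-CoA. Diolein product was quantified by RapidFire ESI Q-TOF MS against diolein-d5 internal standard; % inhibition was set relative to with/without-enzyme controls.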

recombinant human MGAT2, sequence (Q3SYC2 whole entry): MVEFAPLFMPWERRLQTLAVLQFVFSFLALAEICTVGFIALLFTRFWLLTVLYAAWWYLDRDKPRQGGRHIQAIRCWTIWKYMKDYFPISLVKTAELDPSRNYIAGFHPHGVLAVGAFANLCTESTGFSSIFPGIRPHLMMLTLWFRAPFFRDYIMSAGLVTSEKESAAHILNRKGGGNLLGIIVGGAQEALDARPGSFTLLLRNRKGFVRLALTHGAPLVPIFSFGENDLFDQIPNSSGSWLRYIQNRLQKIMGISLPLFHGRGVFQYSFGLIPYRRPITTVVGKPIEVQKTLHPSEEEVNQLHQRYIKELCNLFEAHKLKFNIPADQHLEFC

| SMILES | IC50 |
| --- | --- |
| N#Cc1ccc(-n2nc3c(c2C(=O)NCC2(O)CCOC2)C(=O)N[C@@]2(CCc4cc(OCC(F)(F)F)ccc42)C3)nc1 (stereo partly drawn) [II-119] | 26.8 nM |
| Cc1ccc(-n2nc3c(c2NC(=O)CS(C)(=O)=O)C(=O)N[C@@]2(CCc4cc(N5CC(F)(F)C5)ccc42)C3)nc1 [II-120] | 9.29 nM |
| Cc1ccc(-n2nc3c(c2NC(=O)CS(C)(=O)=O)C(=O)N[C@@]2(CCc4cc(C(F)(F)F)ccc42)C3)nc1 [II-122] | 5.68 nM |
| COCCCNC(=O)c1c2c(nn1-c1ccc(C#N)cn1)C[C@]1(CCc3cc(OCC(F)(F)F)ccc31)NC2=O [II-123] | 21.7 nM |
| N#Cc1ccc(-n2nc3c(c2C(=O)NCC(F)(F)F)C(=O)N[C@@]2(CCc4cc(OCC(F)(F)F)ccc42)C3)nc1 [II-124] | 19.6 nM |
| COCCNC(=O)c1c2c(nn1-c1ccc(C#N)cn1)C[C@]1(CCc3cc(OCC(F)(F)F)ccc31)NC2=O [II-125] | 63.5 nM |
| N#Cc1ccc(-n2nc3c(c2C(=O)NCCC(F)(F)F)C(=O)N[C@@]2(CCc4cc(OCC(F)(F)F)ccc42)C3)nc1 [II-126] | 12.7 nM |
| N#Cc1ccc(-n2nc3c(c2C(=O)NCC(N)=O)C(=O)N[C@@]2(CCc4cc(OCC(F)(F)F)ccc42)C3)nc1 [II-127] | 39.2 nM |
| N#CCNC(=O)c1c2c(nn1-c1ccc(C#N)cn1)C[C@]1(CCc3cc(OCC(F)(F)F)ccc31)NC2=O [II-128] | 10.2 nM |
| N#Cc1ccc(-n2nc3c(c2C(=O)NCC(O)c2ccccn2)C(=O)N[C@@]2(CCc4cc(OCC(F)(F)F)ccc42)C3)nc1 (stereo partly drawn) [II-129] | 202 nM |
| N#Cc1ccc(-n2nc3c(c2C(=O)N[C@H]2CC[C@H](O)CC2)C(=O)N[C@@]2(CCc4cc(OCC(F)(F)F)ccc42)C3)nc1 [II-130] | 130 nM |
| N#Cc1ccc(-n2nc3c(c2C(=O)NCC2(CO)CC2)C(=O)N[C@@]2(CCc4cc(OCC(F)(F)F)ccc42)C3)nc1 [II-131] | 5.79 nM |
| N#Cc1ccc(-n2nc3c(c2C(=O)NC2CCNC2=O)C(=O)N[C@@]2(CCc4cc(OCC(F)(F)F)ccc42)C3)nc1 (stereo partly drawn) [II-132] | 193 nM |
| N#Cc1ccc(-n2nc3c(c2C(=O)N[C@H]2CC[C@@H](O)C2)C(=O)N[C@@]2(CCc4cc(OCC(F)(F)F)ccc42)C3)nc1 [II-133] | 188 nM |
| N#Cc1ccc(-n2nc3c(c2C(=O)NCCS(N)(=O)=O)C(=O)N[C@@]2(CCc4cc(OCC(F)(F)F)ccc42)C3)nc1 [II-134] | 17.2 nM |
| CC(C)(O)CNC(=O)c1c2c(nn1-c1ccc(C#N)cn1)C[C@]1(CCc3cc(OCC(F)(F)F)ccc31)NC2=O [II-135] | 60.6 nM |
| Cc1ccc(-n2nc3c(c2NC(=O)CS(C)(=O)=O)C(=O)N[C@@]2(CCc4cc(OCC(F)(F)F)ccc42)C3)cc1F [II-136] | 7.42 nM |
| CS(=O)(=O)CC(=O)Nc1c2c(nn1-c1ccc(Cl)c(F)c1)C[C@]1(CCc3cc(OCC(F)(F)F)ccc31)NC2=O [II-137] | 4.79 nM |
| Cc1ccc(-n2nc3c(c2NC(=O)CS(C)(=O)=O)C(=O)N[C@@]2(CCc4cc(OCC(F)(F)F)ccc42)C3)cn1 [II-138] | 45.7 nM |
| Cc1cc(-n2nc3c(c2NC(=O)CS(C)(=O)=O)C(=O)N[C@@]2(CCc4cc(OCC(F)(F)F)ccc42)C3)nnc1C [II-139] | 3.15 nM |
| Cc1cnnc(-n2nc3c(c2NC(=O)CS(C)(=O)=O)C(=O)N[C@@]2(CCc4cc(OCC(F)(F)F)ccc42)C3)c1 [II-140] | 6.4 nM |
| CS(=O)(=O)CC(=O)Nc1c2c(nn1-c1ccc(OC(F)F)cc1)C[C@]1(CCc3cc(OCC(F)(F)F)ccc31)NC2=O [II-141] | 12.8 nM |
| CS(=O)(=O)CC(=O)Nc1c2c(nn1-c1ccc(C#N)cn1)C[C@]1(CCc3cc(C(F)(F)F)ccc31)NC2=O [II-142] | 4.03 nM |
| CS(=O)(=O)CC(=O)Nc1c2c(nn1-c1ccc(C#N)cn1)C[C@]1(CCc3cc(OCC(F)(F)F)ccc31)NC2=O [II-143] | 0.706 nM |

| SMILES | IC50 |
| --- | --- |
| CS(=O)(=O)CC(=O)Nc1c2c(nn1-c1ccc(C#N)cn1)C[C@]1(CCc3cc(OCC(F)(F)F)c(F)cc31)NC2=O [II-144] | 1.05 nM |
| CCOc1ccc2c(c1)OCC[C@]21Cc2nn(-c3ccc(C)cn3)c(NC(=O)CS(C)(=O)=O)c2C(=O)N1 [II-145] | 6.43 nM |
| Cc1ccc(-n2nc3c(c2NC(=O)CS(C)(=O)=O)C(=O)N[C@@]2(CCOc4cc(OCC(F)F)ccc42)C3)nc1 [II-146] | 2.55 nM |
| Cc1ccc(-n2nc3c(c2NC(=O)CS(C)(=O)=O)C(=O)N[C@@]2(CCOc4cc(Cl)ccc42)C3)nc1 [II-147] | 4.92 nM |
| Cc1cc(-n2nc3c(c2NC(=O)CS(C)(=O)=O)C(=O)N[C@@]2(CCc4cc(OCC(F)(F)F)ccc42)C3)ccc1C#N [II-148] | 12.3 nM |
| Cc1cc(-n2nc3c(c2NC(=O)CS(C)(=O)=O)C(=O)N[C@@]2(CCc4cc(OCC(F)(F)F)ccc42)C3)ccc1F [II-149] | 9.01 nM |
| Cc1cc(-n2nc3c(c2NC(=O)CS(C)(=O)=O)C(=O)N[C@@]2(CCOc4cc(OCC(F)(F)F)ccc42)C3)no1 [II-150] | 1.33 nM |
| CS(=O)(=O)CC(=O)Nc1c2c(nn1CCC1CC1)C[C@]1(CCc3cc(OCC(F)(F)F)c(F)cc31)NC2=O [II-152] | 1.96 nM |
| Cc1ccc(-n2nc3c(c2NC(=O)CS(C)(=O)=O)C(=O)N[C@@]2(CCOc4cc(OC(C)C)ccc42)C3)nc1 [II-153] | 4.94 nM |
| Cc1ccc(-n2nc3c(c2NC(=O)CS(C)(=O)=O)C(=O)N[C@@]2(CCOc4cc(N5CC(F)(F)C5)ccc42)C3)nc1 [II-154] | 5.58 nM |
| Cc1ccc(-n2nc3c(c2NC(=O)CS(C)(=O)=O)C(=O)N[C@@]2(CCc4cc(C5CC5)ccc42)C3)nc1 [II-156] | 3.6 nM |
| Cc1ccc(-n2nc3c(c2NC(=O)CS(C)(=O)=O)C(=O)N[C@@]2(CCc4cc(OCC(C)(F)F)ccc42)C3)nc1 [II-157] | 3.83 nM |
| Cc1ccc(-n2nc3c(c2NC(=O)CS(C)(=O)=O)C(=O)N[C@@]2(CCc4cc(OCC(F)F)ccc42)C3)nc1 [II-158] | 8.06 nM |
| CCOc1ccc2c(c1)CC[C@]21Cc2nn(-c3ccc(C)cn3)c(NC(=O)CS(C)(=O)=O)c2C(=O)N1 [II-159] | 7.02 nM |
| Cc1ccc(-n2nc3c(c2NC(=O)CS(C)(=O)=O)C(=O)N[C@@]2(CCc4cc(OC(C)C)ccc42)C3)nc1 [II-160] | 7.69 nM |
| Cc1ccc(-n2nc3c(c2NC(=O)CS(C)(=O)=O)C(=O)N[C@@]2(CCc4cc(OCC(C)(C)F)ccc42)C3)nc1 [II-161] | 4.67 nM |
| Cc1ccc(-n2nc3c(c2NC(=O)CS(C)(=O)=O)C(=O)N[C@@](c2ccc(OCC(F)(F)F)cc2F)(C(F)(F)F)C3)nc1 [II-162] | 5.67 nM |
| CS(=O)(=O)CC(=O)Nc1c2c(nn1-c1ccc(C#N)cn1)C[C@]1(CCc3c1ccc(OCC(F)(F)F)c3F)NC2=O [II-163] | 6.1 nM |
| Cc1ccc(-n2nc3c(c2NC(=O)CS(C)(=O)=O)C(=O)N[C@@]2(CCc4cc(Cl)ccc42)C3)nc1 [II-164] | 7.55 nM |
| Cc1ccc(-n2nc3c(c2NC(=O)CS(C)(=O)=O)C(=O)N[C@@]2(CCc4ccccc42)C3)nc1 [II-165] | 26.9 nM |
| CS(=O)(=O)CC(=O)Nc1c2c(nn1CCC1CC1)C[C@]1(CCc3c1ccc(OCC(F)(F)F)c3F)NC2=O [II-166] | 20.8 nM |
| Cc1cc(-n2nc3c(c2NC(=O)CS(C)(=O)=O)C(=O)N[C@](C)(c2ccc(OCC(F)(F)F)cc2F)C3)no1 [II-167] | 3.63 nM |
| Cc1cc(-n2nc3c(c2NC(=O)CS(C)(=O)=O)C(=O)N[C@@]2(CCc4cc(OCC(F)(F)F)ccc42)C3)on1 [II-169] | 7.38 nM |
| CNC(=O)c1c2c(nn1-c1ccc(C#N)cn1)C[C@]1(CCc3cc(OCC(F)(F)F)ccc31)NC2=O [II-170] | 46.7 nM |
